One experiment has as its system Interleukin-1 (IL-1). Description: Interleukin-1 (IL-1) production by LPS-stimulated human peripheral blood monocytes. It counts as cell-based. As to conditions: Monocyte, lipopolysaccharide 50 ng/ml, 24 h. As to the method:
Human peripheral blood monocytes are isolated and purified from either fresh blood preparations from volunteer donors, or from blood bank buffy coats, according to the procedure of Colotta et al, J Immunol, 132, 936 (1984). These monocytes (1×10^6) are plated in 24-well plates at a concentration of 1–2 million/ml per well. The cells are allowed to adhere for 2 hours, after which time non-adherent cells are removed by gentle washing. Test compounds are then added to the cells for 1 h before the addition of lipopolysaccharide (50 ng/ml), and the cultures are incubated at 37° C. for an additional 24 h. At the end of this period, culture supernatants are removed and clarified of cells and all debris. Culture supernatants are then immediately assayed for IL-1 biological activity, either by the method of Simon et al., J. Immunol. Methods, 84, 85, (1985) (based on ability of IL-1 to stimulate a Interleukin 2 producing cell line (EL-4) to secrete IL-2, in concert with A23187 ionophore) or the method of Lee et al., J. ImmunoTherapy, 6 (1), 1–12 (1990) (ELISA assay).

A further experiment deals with T1, CSBP/p38 (Homo sapiens, UniProt Q16539).
T1 construct: made in house; host or cells: yeast
Description: CSBP/p38 Kinase Assay (32P transfer to T669 peptide). It counts as biochemical. As to conditions: "in this binding assay or a similar assay"; read-out: positive inhibitory activity, IC50. On the procedure: This assay measures the CSBP/p38-catalyzed transfer of ^32p from [a-^32P]ATP to threonine residue in an epidermal growth factor receptor (EGFR)-derived peptide (T669) with the following sequence: […] (residues 661–681). (See Gallagher et al., “Regulation of Stress Induced Cytokine Production by Pyridinyl Imidazoles: Inhibition of CSBP Kinase”, BioOrganic & Medicinal Chemistry, 1997, 5, 49–64).
Reactions were carried in round bottom 96 well plate (from Corning) in a […]. Reactions contained (in final concentration): 25 mM Hepes, pH 7.5; 8 mM MgCl2; 0.17 mM ATP (the Km[ATP] of p38 (see Lee et al., Nature 300, n72 pg. 639–746 (December 1994)); 2.5 uCi of [g-32P]ATP; 0.2 mM sodium orthovanadate; 1 mM DTT; 0.1% BSA; 10% glycerol; 0.67 mM T669 peptide; and 2–4 nM of yeast-expressed, activated and purified p38. Reactions were initiated by the addition of [gamma-32P]Mg/ATP, and incubated for 25 min. at 37° C. Inhibitors (dissolved in DMSO) were incubated with the reaction mixture on ice for 30 minutes prior to adding the 32P-ATP. Final DMSO concentration was 0.16%. Reactions were terminated by adding 10 ul of 0.3 M phosphoric acid, and phosphorylated peptide was isolated from the reactions by capturing it on p81 phosphocellulose filters. Filters were washed with 75 mM phosphoric acids, and incorporated 32P was quantified using beta scintillation counter. […]

T1 sequence (Q16539 whole entry): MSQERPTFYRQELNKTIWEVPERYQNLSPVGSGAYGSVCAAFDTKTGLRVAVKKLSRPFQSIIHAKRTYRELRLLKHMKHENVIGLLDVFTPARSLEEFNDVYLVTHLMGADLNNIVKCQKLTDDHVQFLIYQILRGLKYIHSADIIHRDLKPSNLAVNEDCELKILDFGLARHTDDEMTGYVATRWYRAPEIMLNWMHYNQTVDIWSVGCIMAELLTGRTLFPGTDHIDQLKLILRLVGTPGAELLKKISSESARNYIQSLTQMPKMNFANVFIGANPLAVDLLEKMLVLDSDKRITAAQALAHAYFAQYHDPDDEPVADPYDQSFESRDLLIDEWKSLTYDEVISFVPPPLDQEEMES

As for `Fc1ccc(-c2nc(-c3ccccc3)nn2-c2ccncc2)cc1` [Example 1, 1-(Pyrid-4-yl)-3-phenyl-5-(4-fluorophenyl)-1,2,4-triazole], the 50% inhibitory concentration (IC50) in the experiment with Interleukin-1 (IL-1) is < 7 µM.

As to `Nc1cc(-n2nc(-c3ccccc3)nc2-c2ccc(F)cc2)ncn1` [Example 2, 1-(6-Aminopyrimidin-4-yl)-3-phenyl-5-(4-fluorophenyl)-1,2,4-triazole], the IC50 on CSBP/p38 was < 50 µM.

As usually defined, the IC50 is the concentration that inhibits the measured activity by half.

Source of the values: patent publication US7223760B2, “Substituted triazole compounds” (SmithKline Beecham Corporation, priority 1998, dated 2007).
